Test results taken from US20070208021A1, “Phenoxyacetic Acid Derivatives and Drug Comprising The Same” (DAIICHI PHARMACEUTICAL CO., LTD., priority 2004, published 2007).
≈ marks a conversion by molar mass, not a printed value. Counter-ions that a name gives are not always drawn. Like-named read-outs stand apart in the source and are kept apart here.

How the values were obtained:
[1] = in vivo; cited from earlier work
[2] = target: T1, hPPARα (Homo sapiens, UniProt Q07869); assay: GAL4-hPPAR transactivation assay (PPARα); type: cell-based; settings: HEK293T cells, pFA-hPPARα/GAL4 + pFR-SEAP reporter, about 48 hours
T1 construct: expressed in transfected cells; host or cells: HEK293T
T1 sequence (Q07869 239-466 limits assumed): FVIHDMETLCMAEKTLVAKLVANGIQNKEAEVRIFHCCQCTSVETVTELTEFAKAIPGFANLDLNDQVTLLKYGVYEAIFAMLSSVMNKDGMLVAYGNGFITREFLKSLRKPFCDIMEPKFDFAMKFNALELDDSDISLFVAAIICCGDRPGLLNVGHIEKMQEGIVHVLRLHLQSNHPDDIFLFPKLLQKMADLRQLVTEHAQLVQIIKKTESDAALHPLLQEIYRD
Description: (§1) GAL4-hPPAR Transactivation Assay
(§2) Plasmids for the expression of fusion protein for GAL4 DNA binding region-PPAR ligand binding region, pFA-hPPARα/GAL4 and pFA-hPPARγ/GAL4, were constructed by inserting the LBD cDNA of hPPARα and hPPARγ, respectively, into a commercially-available expression vector (pFA trans-activator plasmid, by STRATAGENE) having a GAL4 DNA binding region (GAL4 DBD) of yeast, under CMV promoter. For the expression of a reporter protein, used were a commercially-available plasmid (pFR-SEAP, by STRATAGENE) having a GAL4 responsive region (GAL4 UAS) in the upstream of cDNA of a secreted alkaline phosphatase (SEAP).
(§3) (b) Cell Culture and Transactivation Assay:
(§4) HEK293T cells were suspended in a high-glucose Dulbecco's modified Eagle's medium (DMEM) containing 10% fetal calf serum (by Hyclone), 100 U/mL penicillin G and […], and seeded in a 24-well cell culture plate in a density of 8×10^4 cells/well. The cells were cultured in a humidified atmosphere of 5% CO2 at 37° C. for 24 hours, and then subjected to transfection using Lipofectamine (by Invitrogen) and Plus reagent (by Invirogen) according to the manufacture's instruction in the absence of serum. Concretely, the cells were incubated in 225 μL of a transfection medium (OPTI-MEM, by Invitrogen) containing 0.48 μL of Lipofectamine, 0.030 μg of pFA-PPAR/GAL4 expression plasmid and 0.13 μg of pFR-SEAP, in a 5% CO2 atmosphere at 37° C. for 5 hours. Next, the same volume of a fresh high-glucose DMEM containing 10% fetal calf serum, 100 U/mL penicillin G, […] streptomycin sulfate and a test compound of two times the designated concentration was added to it, and the cells were incubated for about 48 hours. After the compound was solubilized in DMSO, control cells were incubated along with an equivalent concentration of DMSO. […] After the incubation, the culture supernatant was collected, and using a kit (reporter assay kit—SEAP, by TOYOBO), the SEAP activity was determined according to the manufacturer's instruction. Concretely, the same amount of an intrinsic alkaline phosphatase inhibitor was added to 5 μL of the culture supernatant and incubated at 37° C. for 30 minutes, and then 100 μL of a chemoluminescent substrate (Lumiphos PLUS, by Lumigen) was added thereto and incubated at 37° C. for 15 minutes, and thereafter the luminescence level was determined using a multi-label counter (ARVOsx, by Perkin Elmer). The values obtained as a result of the above operation and the concentrations of the test compound were plotted to obtain the EC50 value.

[3] = target: T2, hPPARγ (Homo sapiens, UniProt P37231); assay: GAL4-hPPAR transactivation assay (PPARγ); type: cell-based; settings: HEK293T cells, pFA-hPPARγ/GAL4 + pFR-SEAP reporter, about 48 hours
T2 construct: expressed in transfected cells; host or cells: HEK293T
T2 sequence (P37231 238-503 limits assumed): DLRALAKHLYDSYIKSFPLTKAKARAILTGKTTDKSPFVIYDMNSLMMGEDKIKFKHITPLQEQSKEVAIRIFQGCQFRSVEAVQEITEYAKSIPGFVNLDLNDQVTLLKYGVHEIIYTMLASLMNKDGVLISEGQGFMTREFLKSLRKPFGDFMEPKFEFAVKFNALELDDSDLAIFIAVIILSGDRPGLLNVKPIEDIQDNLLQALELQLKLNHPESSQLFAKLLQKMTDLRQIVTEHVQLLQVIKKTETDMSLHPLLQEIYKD
Description: as §1, §2, §3, §4

[4] = Determination of solubility in JP-fluid 1 / JP-fluid 2 (HPLC); type: physicochemical; settings: thermodynamic from solid, 12 hours or more
Description: Determination of Solubility
One mg of a test compound was put into a test tube, and 1 ml of the first fluid for Japanese Pharmacopoeia Disintegration Test Method (synthetic gastric juice, pH 1.2: hereinafter referred to as JP-fluid 1) or the second fluid for Japanese Pharmacopoeia Disintegration Test Method (synthetic intestinal juice, pH 6.8: hereinafter referred to as JP-fluid 2) was added thereto and shaken, and then statically left at room temperature for 12 hours or more. After thus left, the sample was filtered through a 0.45-μm membrane filter, and the filtrate was suitably diluted with a mixture of DMSO-purified water (1/1) to prepare solutions for solubility determination.
Apart from the above, 1 mg of the test compound was put into a 20-mL messflask, and dissolved in a mixture of DMSO-purified water (1/1) to prepare a standard solution of 50 μg/mL. The standard solution was stepwise diluted to give serial dilutions, and using the dilutions, a calibration curve was formed.
The above-mentioned solutions for solubility determination with the JP-fluid 1 or the JP-fluid 2 were analyzed through HPLC, and based on the calibration curve formed in the above, the solubility of the test compound was computed.
The HPLC condition is as follows:
HPLC System for Alliance Assay (by Waters, USA),
Feed Pump: 2795 separation module,
UV Detector: 2996 photodiode array detector,
Column: ODS-type C18 column (3.5 μm, 3.0 mm ID×30 mm),
Column Temperature: 60° C.,
Mobile Phase A: pH 4.5, 10 mM acetate buffer,
Mobile Phase B: 50% acetic acid-acetonitrile mixture (1/999),
Gradient Condition: mobile phase A/B ratio, 95/5 to 10/90,
Sample Temperature: 25° C.,
Detection Wavelength: maximum absorption wavelength within a range of 220 to 420 nm.

[5] = Lipid solubility: octanol / pH 7.4 phosphate buffer partition coefficient; type: physicochemical; settings: n-octanol / pH 7.4 isotonic phosphate buffer, read-out: log D (pH 7.4)
Description: An equi-volume mixture of n-octanol (hereinafter referred to as octanol) and pH 7.4 isotonic phosphate buffer (hereinafter referred to as aqueous phase) was shaken in a suitable vessel, then statically left for 24 hours or more, and the upper layer (water-saturated octanol) and the lower layer (octanol-saturated water) were separately collected.
1 mg of a test compound was put into a test tube, and 5 ml of the water-saturated octanol was added thereto, ultrasonicated for 10 minutes and then stirred for about 30 seconds. In case where an insoluble substance was seen, then the liquid was filtered through a 0.45-μm membrane filter. 2 mL of the water-saturated octanol solution of the test compound was taken into a test tube, 2 mL of the octanol-saturated water was added thereto and shaken for 30 minutes. Then, this was centrifuged to separate into an upper layer (octanol phase) and a lower layer (aqueous phase), which were then separately collected.
The octanol phase and the aqueous phase were suitably diluted with DMSO, and the concentration of the test compound therein was determined through UV-detection HPLC or MS-detection HPLC.
From the concentration measured in each phase and the dilution ratio of each phase, the partition coefficient was derived through computation.
In case where the solubility in water of the test compound is estimated to be high, then the test compound is dissolved in the octanol-saturated water and then the water-saturated octanol is added thereto, shaken and centrifuged, and the upper layer (octanol phase) and the lower layer (aqueous phase) are separately collected to determine the concentration of the test compound.
The details of the HPLC apparatus and its operation condition are as follows: […]

[6] = patients associated with type II diabetes; cited from earlier work
[7] = db/db mice, as compared with pioglitazone; cited from earlier work
[8] = fassgf or other biorelevant, synthetic intestinal juice, pH 6.8, room temperature, read-out: Solubility JP-fluid 2
[9] = simulated gastric fluid, synthetic gastric juice, pH 1.2, room temperature, read-out: Solubility JP-fluid 1

Row | Compound | high-density lipoprotein (HDL) [1] | plasma triglyceride [1] | EC50 [2] [nM] | EC50 [3] [nM] | solubility [4, 8] [µg/mL] | solubility [4, 9] [µg/mL] | logD [5] | body weight increase or fluid accumulation [6] | body weight increase [7]
1 | Cc1oc(-c2ccc(-c3ccccc3)cc2)nc1CCOc1ccc(OC(C)(C)C(=O)O)cc1 [LY465608] | dose-dependently increases | lowers |  |  |  |  |  |  | 
2 | Cc1nnc(CN(Cc2cc(C)c(OC(C)(C)C(=O)O)c(C)c2)Cc2nc(-c3ccccc3)oc2C)o1 [Example 18-(2), 2-[2,6-Dimethyl-4-[[(5-methyl-[1,3,4]oxadiazol-2-ylmethyl)-(5-methyl-2-phenyloxazol-4-ylmethyl)amino]methyl]phenoxy]-2-methylpropanoic acid] |  |  | 2.9 | 33 | > 710 | > 710 | 1.1 |  | 
3 | CCc1ccc(CCOc2ccc(CC3SC(=O)NC3=O)cc2)nc1 (centres unmarked) [Pioglitazone, pioglitazone] |  |  |  |  |  |  |  | observed in some patients | 
4 | Cc1cc(CN(Cc2ncco2)Cc2nc(-c3ccccc3)oc2C)cc(C)c1OC(C)(C)C(=O)O [Example 13-(2), 2-[2,6-Dimethyl-4-[[(5-methyl-2-phenyloxazol-4-ylmethyl)oxazol-2-ylmethylamino]methyl]phenoxy]-2-methylpropanoic acid] |  |  | 3.7 | 5.5 | > 870 | > 870 | 1.8 |  | 
5 | Cc1oc(-c2cccc(Br)c2)nc1CN(Cc1ccncc1)Cc1ccc(OC(C)(C)C(=O)O)cc1 [Example 4-(2), 2-[4-[[[2-(3-Bromophenyl)-5-methyloxazol-4-ylmethyl]pyridin-4-ylmethylamino]methyl]phenoxy]-2-methylpropionic acid] |  |  | 4.8 | 180 | < 3 | 930 (≈ 1690 µM) | 2.5 |  | 
6 | Cc1cc(CN(Cc2nccs2)Cc2nc(-c3ccccc3)oc2C)cc(C)c1OC(C)(C)C(=O)O [Example 16-(2), 2-[2,6-Dimethyl-4-[[(5-methyl-2-phenyloxazol-4-ylmethyl)thiazol-2-ylmethylamino]methyl]phenoxy]-2-methylpropanoic acid] |  |  | 2.4 | 8.8 | 480 (≈ 949 µM) | > 490 | 2.6 |  | 
7 | Cc1oc(-c2cccc(Br)c2)nc1CN(Cc1ccc(OC(C)(C)C(=O)O)cc1)Cc1nccs1 [Example 1-(2), 2-[4-[[[2-(3-Bromophenyl)-5-methyloxazol-4-ylmethyl]thiazol-2-ylmethylamino]methyl]phenoxy-2-methylpropionic acid hydrochloride] |  |  | 13 | 590 | > 1000 | 490 | 2.7 |  | 
8 | Cc1noc(CN(Cc2cc(C)c(OC(C)(C)C(=O)O)c(C)c2)Cc2nc(-c3ccccc3)oc2C)n1 [Example 19-(3), 2-[2,6-Dimethyl-4-[[(3-methyl-[1,2,4]oxadiazol-5-ylmethyl)-(5-methyl-2-phenyloxazol-4-ylmethyl)amino]methyl]-phenoxy]-2-methylpropanoic acid] |  |  | 2.7 | 6.9 | > 710 | 650 (≈ 1290 µM) | 1.8 |  | 
9 | COc1ccc(CC2SC(=O)NC2=O)cc1C(=O)NCc1ccc(C(F)(F)F)cc1 (centres unmarked) [KRP-297] |  |  |  |  |  |  |  |  | significantly inhibits the body weight increase
10 | Cc1cc(CN(Cc2ccco2)Cc2sc(-c3ccc(C(F)(F)F)cc3)nc2C)ccc1OC(C)(C)C(=O)O [SKB-compd, reference compound] |  |  | 44 | 48 | 10 (≈ 17.9 µM) | 240 (≈ 430 µM) | 4.4 |  | 
11 | Cc1oc(-c2cccc(Br)c2)nc1CN(Cc1ccc(OC(C)(C)C(=O)O)cc1)Cc1cscn1 [Example 5-(2), 2-[4-[[[2-(3-Bromophenyl)-5-methyloxazol-4-ylmethyl]thiazol-4-ylmethylamino]methyl]phenoxy]-2-methylpropionic acid hydrochloride] |  |  | 2.6 | 220 | 680 | 520 | 2.3 |  | 
